This note sets out measurements from patent US12459951B2, “Compounds that interact with RAS superfamily proteins for treatment of cancers, inflammatory diseases, rasopathies, and fibrotic disease” (SHY Therapeutics, LLC, priority 2022, dated 2025).

One assay concerns Akt phosphorylation. Kind of assay: Akt Phosphorylation Assay (western blot), Panc-1. The format is cell-based, human. As to conditions: at 10 μM, * = activation. In a few lines:
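Phospho-Akt (Ser473) was measured by western blot in lysates of KRas G12D Panc-1 cells exposed to test compound for 6 h at 37 °C, either at 10 μM final with 0.3% DMSO or as serial dilutions for IC50. One format used overnight 0.5% FBS starvation followed by a 15 min pulse of 1.5 ng/ml EGF. The other used cells in 10% FBS with no stimulation.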

In another assay the test system is IL6. Kind of assay: IL-6 Quantification Assay (ELISA), LPS-stimulated RAW 264.7. It is filed as cell-based. Further details: inhibition: dose or concentration left out as unconfirmed. As to conditions: Mus musculus, RAW264.7; read-out: IL-6: % inh.
Assay [1] deals with Smad2/Smad3 phosphorylation. Kind of assay: Phospho-Smad2/3 Inhibition Assay (western blot), Panc-1. It is filed as cell-based, human. As to conditions: at 10 μM, Panc-1 pancreatic cancer cell line; starred symbols = activation. In a few lines: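 Western blotting of lysates (15-50 μg protein) read phosphorylation of Smad2 Ser465/467 and Smad3 Ser423/425. Before lysis, Panc-1 cells got 1 h of 10 ng/ml TGF-b1 following 3 h compound exposure at 37° C (10 μM final, or serial dilutions for IC50, 0.3% DMSO) after overnight 0.5% FBS starvation.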
A general note: A western blot detects proteins with antibodies after separation by electrophoresis.

SMILES strings stand for the structures.

In the case of `COc1cnc(Nc2nc(-c3nccn3C)nn3cc(-c4ccn(C)n4)c(C)c23)cc1C` [Compound 236, N-(5-Methoxy-4-methylpyridin-2-yl)-5-methyl-2-(1-methyl-1H-imidazol-2-yl)-6-(1-methyl-1H-pyrazol-3-yl)pyrrolo[2,1-f][1,2,4]triazin-4-amine], the “% inh of Akt phosphorylation in Panc-1” value with Akt phosphorylation is recorded as “B* (26-49% activation)”. The inhibition in the assay on IL6 was 0%. For the same molecule, in assay [1], the “% inh of Smad2/3 phosphorylation in Panc-1” value is on record as 0 (0 = 0% inhibition).
Regarding `COc1cc(Nc2nc(-c3ccccn3)nn3cc(-c4ccn(C(C)C)n4)c(C)c23)ncn1` [Compound 13, 6-(1-Isopropyl-1H-pyrazol-3-yl)-N-(6-methoxypyrimidin-4-yl)-5-methyl-2-(pyridin-2-yl)pyrrolo[2,1-f][1,2,4]triazin-4-amine], in the assay with Akt phosphorylation, the “% inh of Akt phosphorylation in Panc-1” value is recorded as 0 (0% inhibition). In the assay with IL6, the inhibition is 75 to 100%. Further, in assay [1], the “% inh of Smad2/3 phosphorylation in Panc-1” value is reported as 0 (0 = 0% inhibition).
`COc1cccc(-c2cn3nc(-c4nccn4C)nc(O)c3c2C)c1Cl` [Compound 15, 6-(2-Chloro-3-methoxyphenyl)-5-methyl-2-(1-methyl-1H-imidazol-2-yl)pyrrolo[2,1-f][1,2,4]triazin-4-ol]: the “% inh of Akt phosphorylation in Panc-1” value with Akt phosphorylation is 0 (0% inhibition). For the same molecule, in the assay with IL6, the inhibition lay within 50 to 74%. For the same molecule, the “% inh of Smad2/3 phosphorylation in Panc-1” value in assay [1] is 0 (0 = 0% inhibition).
In the same order, the values of `Cc1c(-c2ccn(C)n2)cn2nc(-c3nccn3C)nc(Nc3cc(OCCNC(=O)CCCC[C@H]4SC[C@H]5NC(=O)N[C@H]54)ccn3)c12` [Compound 186, N-(2-((2-((5-Methyl-2-(1-methyl-1H-imidazol-2-yl)-6-(1-methyl-1H-pyrazol-3-yl)pyrrolo[2,1-f][1,2,4]triazin-4-yl)amino)pyridin-4-yl)oxy)ethyl)-5-((3aR,4R,6aS)-2-oxohexahydro-1H-thieno[3,4-d]imidazol-4-yl)pentanamide] are “A* (1-25% activation)”, 1 to 24% and “D* (D* = 76-100% activation)”.
In the same order, the values of `COc1ccnc(Oc2nc(-c3nccn3C)nn3cc(-c4ccn(C)n4)c(C)c23)c1` [Compound 220, 4-((4-Methoxypyridin-2-yl)oxy)-5-methyl-2-(1-methyl-1H-imidazol-2-yl)-6-(1-methyl-1H-pyrazol-3-yl)pyrrolo[2,1-f][1,2,4]triazine] are “A (1-25% inhibition)”, 25 to 49% and “C (C = 46-75% inhibition)”.
Take `Cc1c(-c2ccn(C)n2)cn2nc(-c3nccn3C)nc(Nc3ccc(OC(F)F)cn3)c12` [Compound 231, N-(5-(Difluorometh-oxy)pyridin-2-yl)-5-methyl-2-(1-methyl-1H-imidazol-2-yl)-6-(1-methyl-1H-pyrazol-3-yl)pyrrolo[2,1-f][1,2,4]triazin-4-amine]: the “% inh of Akt phosphorylation in Panc-1” value in the assay with Akt phosphorylation is listed as “D* (85-100% activation)”. Besides, in the assay with IL6, the inhibition is 1 to 24%. For the same molecule, in assay [1], the “% inh of Smad2/3 phosphorylation in Panc-1” value is “D (D = 76-100% inhibition)”.
For `COc1ccnc(Nc2nc(-c3nccn3CCN)nn3cc(-c4ccn(C)n4)c(C)c23)c1` [Compound 188, 2-(1-(2-Aminoethyl)-1H-imidazol-2-yl)-N-(4-methoxypyridin-2-yl)-5-methyl-6-(1-methyl-1H-pyrazol-3-yl)pyrrolo[2,1-f][1,2,4]triazin-4-amine], the “% inh of Akt phosphorylation in Panc-1” value in the assay on Akt phosphorylation is listed as “A* (1-25% activation)”. Also, in the assay with IL6, the inhibition was in the range of 50 to 74%. For the same molecule, the “% inh of Smad2/3 phosphorylation in Panc-1” value in assay [1] was “B (B = 26-45% inhibition)”.
The matching figures for `COc1cc(Nc2nc(-c3nccn3C)nn3cc(-c4ccn(C)n4)c(C)c23)ncc1F` [Compound 237, N-(5-Fluoro-4-methoxypyridin-2-yl)-5-methyl-2-(1-methyl-1H-imidazol-2-yl)-6-(1-methyl-1H-pyrazol-3-yl)pyrrolo[2,1-f][1,2,4]triazin-4-amine]: “D* (85-100% activation)”, 0% and “A (A = 1-25% inhibition)”.
As to `COc1ccnc(Nc2nc(-c3nccn3C)nn3cc(-c4ccn(C)n4)c(C(=O)N4CCCC4)c23)c1` [Compound 178, (4-((4-Methoxypyridin-2-yl)amino)-2-(1-methyl-1H-imidazol-2-yl)-6-(1-methyl-1H-pyrazol-3-yl)pyrrolo[2,1-f][1,2,4]triazin-5-yl)(pyrrolidin-1-yl)methanone], in the assay with Akt phosphorylation, the “% inh of Akt phosphorylation in Panc-1” value is “D* (85-100% activation)”. In addition, the inhibition in the assay on IL6 lay within 50 to 74%. The “% inh of Smad2/3 phosphorylation in Panc-1” value in assay [1] is reported as “B* (B* = 26-45% activation)”.
In the same order, the values of `COc1ccnc(Nc2nc(-c3nccn3C)nn3cc(-c4ccn(C)n4)c(C(=O)NCCN(C)C)c23)c1` [Compound 177, N-(2-(Dimethylamino)ethyl)-4-((4-methoxypyridin-2-yl)amino)-2-(1-methyl-1H-imidazol-2-yl)-6-(1-methyl-1H-pyrazol-3-yl)pyrrolo[2,1-f][1,2,4]triazine-5-carboxamide] are “A* (1-25% activation)”, 75 to 100% and “A (A = 1-25% inhibition)”.
For `COc1cc(Nc2nc(-c3nccn3C)nn3cc(-c4cccnc4)c(-c4cccnc4)c23)ncn1` [Compound 170, N-(6-Methoxypyrimidin-4-yl)-2-(1-methyl-1H-imidazol-2-yl)-5,6-di(pyridin-3-yl)pyrrolo[2,1-f][1,2,4]triazin-4-amine], the “% inh of Akt phosphorylation in Panc-1” value in the assay on Akt phosphorylation was “C* (46-84% activation)”. In the assay on IL6, the inhibition was in the range of 50 to 74%. The “% inh of Smad2/3 phosphorylation in Panc-1” value in assay [1] is “A (A = 1-25% inhibition)”.
Take `CO[C@H]1C[C@H](S(=O)(=O)Nc2nc(-c3nccn3C)nn3cc(-c4ccccc4)c(-c4ccccc4)c23)C1` [Compound 214, (1r,3r)-3-Methoxy-N-(2-(1-methyl-1H-imidazol-2-yl)-5,6-diphenylpyrrolo[2,1-f][1,2,4]triazin-4-yl)cyclobutane-1-sulfonamide]: in the assay on Akt phosphorylation, the “% inh of Akt phosphorylation in Panc-1” value is on record as “A* (1-25% activation)”. Further, in the assay on IL6, the inhibition is 1 to 24%. For the same molecule, in assay [1], the “% inh of Smad2/3 phosphorylation in Panc-1” value is “D (D = 76-100% inhibition)”.
On to `Cc1c(-c2ccn(C)n2)cn2nc(-c3nccn3C)nc(Nc3ccc(C(F)(F)F)cn3)c12` [Compound 233, 5-Methyl-2-(1-methyl-1H-imidazol-2-yl)-6-(1-methyl-1H-pyrazol-3-yl)-N-(5-(trifluoromethyl)pyridin-2-yl)pyrrolo[2,1-f][1,2,4]triazin-4-amine], for which the “% inh of Akt phosphorylation in Panc-1” value in the assay on Akt phosphorylation is on record as “D* (85-100% activation)”. The inhibition in the assay on IL6 was 25 to 49%. Besides, the “% inh of Smad2/3 phosphorylation in Panc-1” value in assay [1] was “B (B = 26-45% inhibition)”.
Consider `CO[C@@H]1C[C@H]1Nc1nc(-c2nccn2C)nn2cc(-c3ccncc3)c(-c3ccccc3)c12` (racemic) [Compound 197, rac N-((1R,2R)-2-methoxycyclopropyl)-2-(1-methyl-1H-imidazol-2-yl)-5-phenyl-6-(pyridin-4-yl)pyrrolo[2,1-f][1,2,4]triazin-4-amine], for which the “% inh of Akt phosphorylation in Panc-1” value in the assay on Akt phosphorylation is “A* (1-25% activation)”. For the same molecule, the inhibition in the assay with IL6 was 50 to 74%. The “% inh of Smad2/3 phosphorylation in Panc-1” value in assay [1] is on record as “C (C = 46-75% inhibition)”.
